Results taken from US10532048B2, “Tetrahydroisoquinolin-1-one derivative or salt thereof” (Seldar Pharma Inc., priority 2007, dated 2020).
pIC50: −log10 of the molar value. Like-named read-outs stand apart in the source and are kept apart here.

How the values were obtained:
BB2 receptor [1] = molecular target: BB2 receptor (Homo sapiens (Human), UniProt P30550); experiment: BB2 receptor binding test (125I [Tyr4] bombesin, PC-3 cell membrane sample); details: 125I [Tyr4] bombesin 0.075 nM, room temperature 2 hours, read-out: IC50 (50% binding inhibition concentration)
Sequence of BB2 receptor (Homo sapiens (Human), UniProt P30550) (P30550 whole entry): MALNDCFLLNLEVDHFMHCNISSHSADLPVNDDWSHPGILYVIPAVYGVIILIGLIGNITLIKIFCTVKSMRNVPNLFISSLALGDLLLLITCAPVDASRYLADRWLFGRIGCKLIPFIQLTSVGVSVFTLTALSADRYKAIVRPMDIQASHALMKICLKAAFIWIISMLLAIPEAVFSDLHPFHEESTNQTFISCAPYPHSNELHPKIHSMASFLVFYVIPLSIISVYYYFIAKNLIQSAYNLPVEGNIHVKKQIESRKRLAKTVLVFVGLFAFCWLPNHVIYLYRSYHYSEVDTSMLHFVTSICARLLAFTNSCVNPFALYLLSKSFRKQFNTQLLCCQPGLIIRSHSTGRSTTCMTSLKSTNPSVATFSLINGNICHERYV
Method: A BB2 receptor binding test was carried out using a membrane sample prepared from a human prostate cancer-derived PC-3 cell. […] The cells detached by a trypsin treatment were added with a 50 mM Tris-HCl buffer (pH 7.4, containing 0.2 mg/ml trypsin inhibitor and 0.2 mg/ml benzamidine), and homogenized by Polytron. The cell suspension was centrifuged at 1,500 rpm for 10 minutes, and the supernatant thus obtained was subjected to 1 hour of ultracentrifugation at 37,000×g. The precipitate was suspended in the aforementioned buffer to a concentration of 0.4 mg protein/ml, and stored at −80° C.
The BB2 receptor binding test was carried out by the following method, and the receptor antagonistic activity of a compound to be tested was calculated. […] Non-specific binding was measured using 1 μM of bombesin. After completion of the incubation, the reaction solution was filtered through a Whatman GF/B filter which had been soaked in 0.5% polyethyleneimine. The radioactivity on the filter was measured using a microplate scintillation counter (Top Count, Perkin-Elmer Co., Ltd.). Further, Ex represents the number of the Example compound.

male Wistar rat = experiment: Restraint stress-induced defecation model; format: in vivo; details: read-out: Inhibitory Rate (%) of number of feces excreted
Method: The compound to be tested of the present test was used by dissolving in water for injection containing 20% propylene glycol+20% Tween 80 or a 0.5% MC (methyl cellulose) solution.
The number of feces excreted during a period from the restriction commencement to 1 hour thereafter was measured. Normal group was put into a separate cage, and number of feces excreted during 1 hour was measured in the same manner.

5-HT3 receptor = 5-HT3 receptor (Homo sapiens (Human), UniProt P46098); details: IBS patients; cited from earlier work
Sequence of 5-HT3 receptor (P46098 24-478): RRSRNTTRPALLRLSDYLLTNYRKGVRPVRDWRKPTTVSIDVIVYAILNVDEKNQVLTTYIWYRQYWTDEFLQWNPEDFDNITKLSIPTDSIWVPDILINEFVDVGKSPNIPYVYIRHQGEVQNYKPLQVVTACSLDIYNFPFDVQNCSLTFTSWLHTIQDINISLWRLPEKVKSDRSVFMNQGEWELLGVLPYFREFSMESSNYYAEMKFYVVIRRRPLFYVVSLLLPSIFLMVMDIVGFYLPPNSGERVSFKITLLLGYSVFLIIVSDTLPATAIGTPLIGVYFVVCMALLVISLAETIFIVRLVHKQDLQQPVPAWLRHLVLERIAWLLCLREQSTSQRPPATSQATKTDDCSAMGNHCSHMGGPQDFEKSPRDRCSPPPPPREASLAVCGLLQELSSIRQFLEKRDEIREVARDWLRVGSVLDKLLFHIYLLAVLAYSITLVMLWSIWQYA

BB2 receptor [2] = details: stress-induced defecation model; cited from earlier work
BB2 receptor [3] = details: abdominal pain model induced by large intestinal distension; cited from earlier work
[4] = oral administration 1 mg/kg, 15 minutes before restraint, feces counted for 1 hour

Row | pIC50 (BB2 receptor [1]) | Compound | inhibition in vivo at 1 mg/kg (male Wistar rat; [4]) | further results
1 | 7.89 | O=C(NCCc1ccccn1)[C@@H]1c2ccccc2C(=O)N([C@H](CO)Cc2ccccc2)[C@H]1c1ccc(Cl)cc1Cl [Ex 61] | – | –
2 | 8.52 | C[C@@H](NC(=O)[C@@H]1c2ccccc2C(=O)N([C@H]2CCCC[C@@H]2NS(C)(=O)=O)[C@H]1c1ccc(Cl)cc1Cl)c1ccccc1 [Ex 236] | – | –
3 | 8.32 | CS(=O)(=O)N[C@H]1CCCC[C@@H]1N1C(=O)c2ccccc2[C@@H](C(=O)NOCc2cccc(C(=O)O)c2)[C@@H]1c1ccc(Cl)cc1Cl [Ex 560] | 62.1% | –
4 | 8.24 | CS(=O)(=O)N[C@H]1CCCC[C@@H]1N1C(=O)c2ccccc2[C@@H](C(=O)NOCc2ccccn2)[C@@H]1c1ccc(Cl)cc1Cl [Ex 589] | 73.9% | –
5 | 8.17 | CS(=O)(=O)NC(=O)c1cccc(CCNC(=O)[C@@H]2c3ccccc3C(=O)N([C@H]3CCCC[C@@H]3NS(C)(=O)=O)[C@H]2c2ccc(Cl)cc2Cl)c1 [Ex 700] | 69.8% | –
6 | 8.13 | CS(=O)(=O)N[C@H]1CCCC[C@@H]1N1C(=O)c2ccccc2[C@@H](C(=O)NCCc2ccc(CC(=O)O)cc2)[C@@H]1c1ccc(Cl)cc1Cl [Ex 701] | 41.3% | –
7 | 8.05 | CS(=O)(=O)N[C@H]1CCCC[C@@H]1N1C(=O)c2ccccc2[C@@H](C(=O)NOCc2cccc(OCCCC(=O)O)c2)[C@@H]1c1ccc(Cl)cc1Cl [Ex 709] | 41.5% | –
8 | 8.17 | CS(=O)(=O)N[C@H]1CCCC[C@@H]1N1C(=O)c2ccccc2[C@@H](C(=O)NCCc2cccc(C(F)(F)C(=O)O)c2)[C@@H]1c1ccc(Cl)cc1Cl [Ex 712] | 55% | –
9 | 8.17 | CS(=O)(=O)N[C@H]1CCCC[C@@H]1N1C(=O)c2ccccc2[C@@H](C(=O)NOCc2ccc(CC(=O)O)cc2)[C@@H]1c1ccc(Cl)cc1Cl [Ex 856] | 61.4% | –
10 | – | Cc1[nH]cnc1CN1CCc2c(c3ccccc3n2C)C1=O [alosetron] | – | improving rate for abdominal symptoms and diarrhea (5-HT3 receptor): 40 to 60%
11 | – | RC-3095 | – | efficacy for abnormal bowel motility (BB2 receptor [2]): effective; efficacy for abdominal symptom (abdominal muscle contraction reaction as index) (BB2 receptor [3]): effective

Row | Compound | pIC50 (BB2 receptor [1]) | inhibition in vivo at 1 mg/kg (male Wistar rat; [4]) | further results
12 | CS(=O)(=O)N[C@H]1CCCC[C@@H]1N1C(=O)c2ccccc2[C@@H](C(=O)NOCc2cc(C(=O)O)cs2)[C@@H]1c1ccc(Cl)cc1Cl [Ex 542] | 8.33 | – | inhibition in vivo at 1 mg/kg (male Wistar rat; 1 h): 40%
13 | CS(=O)(=O)N[C@H]1CCCC[C@@H]1N1C(=O)c2ccccc2[C@@H](C(=O)NOCc2cccc(OCC(=O)O)c2)[C@@H]1c1ccc(Cl)cc1Cl [Ex 631] | 8.35 | 53.8% | –
